Here are results for 7 compounds from ChEMBL document CHEMBL1201862, “PubChem BioAssay data set” (2004).

Test [1] has as its target T1, Peroxisome proliferator-activated receptor gamma (Homo sapiens, UniProt P37231).
T1 sequence (P37231 whole entry): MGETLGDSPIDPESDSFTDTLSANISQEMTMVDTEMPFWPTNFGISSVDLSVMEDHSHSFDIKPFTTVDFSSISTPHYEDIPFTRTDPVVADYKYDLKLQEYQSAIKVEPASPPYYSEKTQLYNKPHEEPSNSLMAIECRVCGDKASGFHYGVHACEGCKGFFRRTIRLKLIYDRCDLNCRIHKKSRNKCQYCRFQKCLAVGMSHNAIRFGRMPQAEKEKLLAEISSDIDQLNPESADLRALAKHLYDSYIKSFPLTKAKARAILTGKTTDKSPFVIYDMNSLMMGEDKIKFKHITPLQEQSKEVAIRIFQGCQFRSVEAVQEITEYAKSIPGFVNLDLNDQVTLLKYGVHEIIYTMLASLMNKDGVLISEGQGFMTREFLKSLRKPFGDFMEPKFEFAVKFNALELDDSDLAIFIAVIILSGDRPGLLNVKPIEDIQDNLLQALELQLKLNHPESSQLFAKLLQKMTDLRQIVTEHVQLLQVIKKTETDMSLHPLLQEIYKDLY
The experiment in a line: competitive ligand displacement at PPARg – biochemical, fluorescence polarization, PolarScreen, PPARg partial agonist project, dose response (AID 504453). A general note: In fluorescence polarisation assays a small probe gives low polarisation when free and higher when bound to something large.

In test [2] the target is T1, Peroxisome proliferator-activated receptor gamma. The experiment in a line: competitive ligand displacement at PPARg – biochemical, TR-FRET, LanthaScreen, PPARg partial agonist project, dose response (AID 504446).
Test [3] shares this target. The experiment in a line: PPARg transcriptional activation, reporter cells – cell-based, luminescence, assay provider, dose response (AID 504447). In kind it is functional.
The target of the next test is T2, Bcl-2-related protein A1 (Mus musculus, UniProt Q07440).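 Also: confirmatory dose–response counterscreen on Bfl-1, used to check hits from a UBC13 polyubiquitin inhibitor campaign.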
T2 sequence (Q07440 whole entry): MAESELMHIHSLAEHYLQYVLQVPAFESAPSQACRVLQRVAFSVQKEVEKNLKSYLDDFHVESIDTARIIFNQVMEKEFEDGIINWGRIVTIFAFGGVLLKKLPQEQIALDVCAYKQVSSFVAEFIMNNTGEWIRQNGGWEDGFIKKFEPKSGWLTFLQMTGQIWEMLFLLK
The class given is functional.

The target of test [4] is T3, Ubiquitin-conjugating enzyme E2 N (Homo sapiens, UniProt P61088).
T3 sequence (P61088 whole entry): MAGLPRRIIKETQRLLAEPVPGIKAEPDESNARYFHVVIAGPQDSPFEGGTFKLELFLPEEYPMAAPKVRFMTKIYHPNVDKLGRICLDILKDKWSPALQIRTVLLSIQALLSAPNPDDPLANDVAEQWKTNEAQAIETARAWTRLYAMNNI
The class given is functional.

Test [5] addresses T3, Ubiquitin-conjugating enzyme E2 N. The class given is functional. The source holds these as a separate data set.
Test [6] addresses E3 ubiquitin-protein ligase XIAP (Homo sapiens, UniProt P98170). The experiment in a line: Counter Screen using XIAP-Bir3 for Chemical Antagonists of Bir1/2 domains of IAP-family anti-apoptotic proteins. [Related pubchem assays (depositor defined):AID1018, AID1449, AID1514, AID1638, AID1749, AID1750, AID488957, AID488963].
Test [7] deals with T4, Small ubiquitin-related modifier 1 (Homo sapiens, UniProt P63165). The experiment in a line: SUMO1 protein-protein binding blockers, potency – biochemical, FRET, dose response (AID 624383). The class given is functional. The settings on record: read-out: IC50_Mean.
T4 sequence (P63165 whole entry): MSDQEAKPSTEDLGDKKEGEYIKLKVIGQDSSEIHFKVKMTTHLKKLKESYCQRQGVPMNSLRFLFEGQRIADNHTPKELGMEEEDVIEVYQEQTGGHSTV
The target in test [8] is T5, SUMO-activating enzyme (Homo sapiens, UniProt Q9UBT2). The experiment in a line: blockers of SAE1/SAE2–UBC9 SUMO transfer – biochemical, HTRF, uHTS, primary screen (AID 2006). The class given is protein-complex assay. For orientation: Time-resolved FRET reads energy transfer from a long-lived donor to a nearby acceptor.
T5 sequence (Q9UBE0 whole entry): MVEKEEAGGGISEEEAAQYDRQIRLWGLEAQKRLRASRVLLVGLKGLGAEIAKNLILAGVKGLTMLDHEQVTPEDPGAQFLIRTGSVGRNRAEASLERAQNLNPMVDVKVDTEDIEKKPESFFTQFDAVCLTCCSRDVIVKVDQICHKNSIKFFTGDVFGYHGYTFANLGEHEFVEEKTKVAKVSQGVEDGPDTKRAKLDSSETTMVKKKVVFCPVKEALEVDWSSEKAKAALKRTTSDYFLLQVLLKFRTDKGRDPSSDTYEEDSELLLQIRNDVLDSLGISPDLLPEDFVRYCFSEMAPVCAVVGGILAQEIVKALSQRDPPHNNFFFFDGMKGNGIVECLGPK
T5 sequence (Q9UBT2 whole entry): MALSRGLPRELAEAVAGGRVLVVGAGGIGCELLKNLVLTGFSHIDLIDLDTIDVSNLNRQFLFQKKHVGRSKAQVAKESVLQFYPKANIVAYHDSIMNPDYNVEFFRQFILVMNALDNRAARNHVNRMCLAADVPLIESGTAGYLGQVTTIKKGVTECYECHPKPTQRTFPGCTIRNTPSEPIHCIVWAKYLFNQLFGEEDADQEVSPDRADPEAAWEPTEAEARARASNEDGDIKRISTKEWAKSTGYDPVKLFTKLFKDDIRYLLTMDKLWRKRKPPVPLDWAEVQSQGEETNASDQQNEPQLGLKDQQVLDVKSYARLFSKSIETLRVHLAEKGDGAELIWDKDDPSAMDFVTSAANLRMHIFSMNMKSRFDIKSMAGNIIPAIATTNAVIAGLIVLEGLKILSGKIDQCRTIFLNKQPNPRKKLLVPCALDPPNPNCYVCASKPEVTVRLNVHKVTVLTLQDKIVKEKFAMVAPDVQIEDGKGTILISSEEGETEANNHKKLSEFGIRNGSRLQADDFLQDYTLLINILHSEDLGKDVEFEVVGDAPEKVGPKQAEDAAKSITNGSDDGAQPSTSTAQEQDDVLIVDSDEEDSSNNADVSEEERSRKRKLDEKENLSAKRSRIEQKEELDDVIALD
Test [9] addresses DNA (cytosine-5)-methyltransferase 1 (Homo sapiens, UniProt P26358). The experiment in a line: inhibition of DNA methylation by DNMT1 – biochemical, fluorescent molecular beacon, confirmation (AID 602386). The class given is functional.
Another test has as its target Prothrombin (Bos taurus, UniProt P00735). The experiment in a line: thrombin protease inhibitors – biochemical, fluorescence polarization, uHTS hits, dose response (AID 602369). The class given is functional.
A further test deals with Genome polyprotein (Hepatitis C virus, UniProt Q2Q167). The experiment in a line: disruption of hepatitis C core self-association – biochemical, TR-FRET, dose response (AID 2159).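 Also: blocks dimerization of HCV core protein measured by TR-FRET between tagged core106 pairs.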 Set-up: species or system Hepacivirus hominis.
Genome polyprotein, sequence (Q2Q167 whole entry): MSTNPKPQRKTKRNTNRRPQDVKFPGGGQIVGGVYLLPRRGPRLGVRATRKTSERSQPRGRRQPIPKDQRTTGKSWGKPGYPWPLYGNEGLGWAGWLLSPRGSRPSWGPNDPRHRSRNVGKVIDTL
For test [10], the target named is 72 kDa type IV collagenase (Homo sapiens, UniProt P08253). The experiment in a line: Dose Response validation of uHTS RPN11 inhibitor hits using a MMP-2 Fluorescence assay. In kind it is functional.
Test [11] addresses T4, Small ubiquitin-related modifier 1. The experiment in a line: SUMO1 protein interaction blockers, potency – biochemical, fluorescence polarization, uHTS hits, dose response (AID 624382). The class given is functional. The settings on record: read-out: IC50_Mean.
Test [12] addresses T5, SUMO-activating enzyme. The experiment in a line: blockers of UBC9-mediated SUMO conjugation – biochemical, AlphaScreen, SUMOylation inhibitor project, confirmation (AID 2018). The class given is functional. For orientation: Bead proximity is the source of the signal in Alpha formats.
The target in test [13] is T6, Carboxy-terminal domain RNA polymerase II polypeptide A small phosphatase 1 (Homo sapiens, UniProt Q9GZU7).
T6 sequence (Q9GZU7 whole entry): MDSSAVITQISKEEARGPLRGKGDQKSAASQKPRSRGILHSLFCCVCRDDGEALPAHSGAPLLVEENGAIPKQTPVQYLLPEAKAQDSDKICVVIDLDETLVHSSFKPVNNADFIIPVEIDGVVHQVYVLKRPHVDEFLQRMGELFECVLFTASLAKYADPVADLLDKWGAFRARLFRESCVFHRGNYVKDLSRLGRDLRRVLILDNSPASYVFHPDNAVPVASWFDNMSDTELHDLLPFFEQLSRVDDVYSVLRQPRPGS
The experiment in a line: CTDSP1 inhibitors, concentration-response, biochemical, absorbance readout, ultra-high-throughput screen actives (AID 540297). In kind it is functional.

In test [14] the target is 26S proteasome non-ATPase regulatory subunit 14 (Homo sapiens, UniProt O00487). The experiment in a line: inhibition of proteasome subunit RPN11 – biochemical, fluorescence polarization, uHTS hits, confirmation (AID 602368). The class given is functional.
26S proteasome non-ATPase regulatory subunit 14, sequence (O00487 whole entry): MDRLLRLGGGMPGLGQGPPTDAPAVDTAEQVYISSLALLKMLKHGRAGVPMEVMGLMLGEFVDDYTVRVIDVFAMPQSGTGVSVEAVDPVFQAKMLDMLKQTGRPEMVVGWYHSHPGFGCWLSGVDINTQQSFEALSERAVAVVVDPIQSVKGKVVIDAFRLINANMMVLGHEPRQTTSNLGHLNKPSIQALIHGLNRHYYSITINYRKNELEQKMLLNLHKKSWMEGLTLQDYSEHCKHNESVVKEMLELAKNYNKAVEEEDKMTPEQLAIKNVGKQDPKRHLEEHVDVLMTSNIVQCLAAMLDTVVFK
A further test concerns the target Coagulation factor XII (Homo sapiens, UniProt P00748). In kind it is functional.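 Also: activated factor XIIa alpha cleaving a fluorogenic AMC peptide substrate; inhibitor potency from loss of enzyme activity.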
A further test has as its target Hexokinase HKDC1 (Homo sapiens, UniProt Q2TB90). The experiment in a line: activation of HKDC1 glucose phosphorylation – biochemical, W721R variant, dose response (AID 504730). In kind it is functional.
A further test concerns the target Hexokinase-1 (Homo sapiens, UniProt P19367). The experiment in a line: HK1 enzyme activation by HKDC1 hits – biochemical, selectivity assay for HKDC1 activator project, dose response (AID 504762). The class given is functional.
For test [15], the target named is T7, Runt-related transcription factor 1/Core-binding factor subunit beta (Homo sapiens, UniProt Q01196+Q13951). The experiment in a line: Confirmation of compounds inhibiting the binding between the RUNX1 Runt domain and CBFb-SMMHC via a time resolved fluorescence resonance energy transfer (TR-FRET) assay. [Related pubchem assays (depositor defined):AID1434, AID1438, AID1496, AID1560, AID1645]. In kind it is protein assay.
T7 sequence (Q01196 whole entry, the tested form may be a part): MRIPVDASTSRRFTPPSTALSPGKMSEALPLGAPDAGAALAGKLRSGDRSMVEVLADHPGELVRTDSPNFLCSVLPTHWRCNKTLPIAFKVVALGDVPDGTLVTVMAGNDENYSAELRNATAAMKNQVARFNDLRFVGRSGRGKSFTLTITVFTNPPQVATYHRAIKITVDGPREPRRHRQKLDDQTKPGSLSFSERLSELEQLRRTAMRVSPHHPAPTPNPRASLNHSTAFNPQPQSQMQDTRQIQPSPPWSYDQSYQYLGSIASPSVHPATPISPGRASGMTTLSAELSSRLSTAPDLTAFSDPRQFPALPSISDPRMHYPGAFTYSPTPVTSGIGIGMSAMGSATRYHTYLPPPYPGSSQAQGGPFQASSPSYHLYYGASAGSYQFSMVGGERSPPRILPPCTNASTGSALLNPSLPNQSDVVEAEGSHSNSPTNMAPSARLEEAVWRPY
T7 sequence (Q13951 whole entry, the tested form may be a part): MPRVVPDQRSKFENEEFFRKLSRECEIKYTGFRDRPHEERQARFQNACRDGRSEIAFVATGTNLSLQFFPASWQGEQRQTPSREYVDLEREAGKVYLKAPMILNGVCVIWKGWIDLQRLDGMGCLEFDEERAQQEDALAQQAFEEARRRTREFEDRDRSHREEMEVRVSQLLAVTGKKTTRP

Test [16] concerns the target T7, Runt-related transcription factor 1/Core-binding factor subunit beta. The experiment in a line: disruptors of Runt domain/CBFb-SMMHC interaction – biochemical, FRET, Cerulean-Runt, Venus-CBFb-SMMHC, uHTS, […] (AID 1434). The class given is protein assay.
Test [17] deals with Dual specificity tyrosine-phosphorylation-regulated kinase 1A (Rattus norvegicus, UniProt Q63470). In kind it is biochemical, Homo sapiens.
Test [18] has as its target T7, Runt-related transcription factor 1/Core-binding factor subunit beta. The experiment in a line: Runt domain/CBFb-SMMHC interaction disruptors – biochemical, TR-FRET (AID 1438). In kind it is protein assay.
The target is the same in test [19]. The experiment in a line: Confirmation of compounds inhibiting the binding between the RUNX1 Runt domain and CBFb-SMMHC via a fluorescence resonance energy transfer (FRET) assay. [Related pubchem assays (depositor defined):AID1434, AID1438, AID1496, AID1550, AID1645]. In kind it is protein assay.

Active and inactive are the calls of the source.

E3 ubiquitin-protein ligase XIAP, sequence (P98170 whole entry): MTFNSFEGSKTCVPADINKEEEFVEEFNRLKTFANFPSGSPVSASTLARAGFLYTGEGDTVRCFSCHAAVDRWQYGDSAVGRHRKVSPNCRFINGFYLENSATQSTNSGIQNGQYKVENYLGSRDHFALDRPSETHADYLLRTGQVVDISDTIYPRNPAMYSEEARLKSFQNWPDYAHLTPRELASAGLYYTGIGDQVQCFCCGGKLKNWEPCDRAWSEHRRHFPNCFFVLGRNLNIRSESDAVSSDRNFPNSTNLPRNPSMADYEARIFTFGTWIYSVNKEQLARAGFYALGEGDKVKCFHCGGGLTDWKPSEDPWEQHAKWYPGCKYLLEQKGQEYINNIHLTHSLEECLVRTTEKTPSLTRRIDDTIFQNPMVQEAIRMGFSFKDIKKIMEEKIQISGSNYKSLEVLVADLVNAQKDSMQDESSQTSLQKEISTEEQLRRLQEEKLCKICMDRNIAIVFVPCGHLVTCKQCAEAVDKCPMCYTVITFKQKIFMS
Coagulation factor XII, sequence (P00748 20-372 limits assumed): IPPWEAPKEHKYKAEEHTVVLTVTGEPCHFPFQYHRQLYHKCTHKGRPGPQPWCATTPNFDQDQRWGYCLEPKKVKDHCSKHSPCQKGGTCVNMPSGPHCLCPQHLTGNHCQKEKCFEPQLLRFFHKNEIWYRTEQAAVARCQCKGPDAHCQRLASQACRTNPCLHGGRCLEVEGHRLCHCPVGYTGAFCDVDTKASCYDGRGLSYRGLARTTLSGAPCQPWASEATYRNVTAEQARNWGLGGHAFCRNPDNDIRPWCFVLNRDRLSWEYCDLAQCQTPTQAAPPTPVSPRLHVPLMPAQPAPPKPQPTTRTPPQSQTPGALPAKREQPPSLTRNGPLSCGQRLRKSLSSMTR
Coagulation factor XII, sequence (P00748 373-615 limits assumed): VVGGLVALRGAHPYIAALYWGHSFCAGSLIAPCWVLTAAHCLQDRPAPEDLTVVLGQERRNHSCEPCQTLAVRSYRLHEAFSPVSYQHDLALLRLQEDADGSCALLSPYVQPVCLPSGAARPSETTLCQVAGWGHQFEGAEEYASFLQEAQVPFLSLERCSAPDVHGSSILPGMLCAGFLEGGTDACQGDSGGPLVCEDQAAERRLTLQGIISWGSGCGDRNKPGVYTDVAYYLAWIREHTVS
DNA (cytosine-5)-methyltransferase 1, sequence (P26358 whole entry): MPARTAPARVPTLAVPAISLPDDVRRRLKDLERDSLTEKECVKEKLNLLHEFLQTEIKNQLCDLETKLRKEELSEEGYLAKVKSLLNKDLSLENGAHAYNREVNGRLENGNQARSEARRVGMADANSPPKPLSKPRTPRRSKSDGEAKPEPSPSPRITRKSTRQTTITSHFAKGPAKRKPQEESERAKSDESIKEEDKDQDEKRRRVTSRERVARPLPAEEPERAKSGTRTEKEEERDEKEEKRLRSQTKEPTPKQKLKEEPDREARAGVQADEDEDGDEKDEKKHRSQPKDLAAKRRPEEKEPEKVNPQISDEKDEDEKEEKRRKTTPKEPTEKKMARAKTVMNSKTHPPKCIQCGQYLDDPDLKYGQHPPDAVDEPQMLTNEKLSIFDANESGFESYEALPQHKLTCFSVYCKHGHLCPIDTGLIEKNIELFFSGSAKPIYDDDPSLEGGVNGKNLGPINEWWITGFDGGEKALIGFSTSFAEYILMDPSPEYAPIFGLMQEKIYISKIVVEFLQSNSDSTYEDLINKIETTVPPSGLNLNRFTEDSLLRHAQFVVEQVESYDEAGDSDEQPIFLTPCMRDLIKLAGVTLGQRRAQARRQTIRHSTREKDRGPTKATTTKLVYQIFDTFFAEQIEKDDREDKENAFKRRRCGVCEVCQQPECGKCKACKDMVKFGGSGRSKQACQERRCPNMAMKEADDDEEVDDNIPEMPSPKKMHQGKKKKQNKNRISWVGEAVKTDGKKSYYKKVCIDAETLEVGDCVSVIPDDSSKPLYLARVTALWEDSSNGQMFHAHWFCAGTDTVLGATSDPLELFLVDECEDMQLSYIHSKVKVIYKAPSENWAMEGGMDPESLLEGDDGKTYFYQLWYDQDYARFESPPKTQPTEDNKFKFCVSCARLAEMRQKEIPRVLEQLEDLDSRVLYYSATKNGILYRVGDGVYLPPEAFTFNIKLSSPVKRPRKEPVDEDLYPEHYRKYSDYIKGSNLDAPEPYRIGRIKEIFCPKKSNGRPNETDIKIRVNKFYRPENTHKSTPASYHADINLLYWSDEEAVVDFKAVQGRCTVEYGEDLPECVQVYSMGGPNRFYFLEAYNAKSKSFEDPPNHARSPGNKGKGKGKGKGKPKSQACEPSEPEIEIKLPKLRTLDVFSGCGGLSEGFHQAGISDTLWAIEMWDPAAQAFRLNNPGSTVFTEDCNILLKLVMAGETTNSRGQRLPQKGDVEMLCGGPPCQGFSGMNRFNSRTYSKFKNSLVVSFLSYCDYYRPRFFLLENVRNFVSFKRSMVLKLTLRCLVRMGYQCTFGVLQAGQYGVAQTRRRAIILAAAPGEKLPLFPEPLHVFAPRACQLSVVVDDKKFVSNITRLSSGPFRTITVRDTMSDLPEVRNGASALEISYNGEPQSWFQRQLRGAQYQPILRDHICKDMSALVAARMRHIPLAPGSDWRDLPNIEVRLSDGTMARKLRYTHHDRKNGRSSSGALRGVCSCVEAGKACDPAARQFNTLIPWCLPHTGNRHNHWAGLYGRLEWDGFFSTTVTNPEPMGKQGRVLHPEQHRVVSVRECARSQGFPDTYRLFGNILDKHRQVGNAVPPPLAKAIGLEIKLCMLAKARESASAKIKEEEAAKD

For orientation: EC50 means the midpoint of the concentration-response curve. In the case of `CCn1cnc2c1c(=O)n(Cc1cccc([N+](=O)[O-])c1)c(=O)n2Cc1ccccc1`, the IC50 in [1] was 0.173 µM (active); in test [2], 0.6 µM (active). Besides, the EC50 in test [3] was 0.181 µM (active).
Take `CCCCN=C(S)N=Nc1c(O)[nH]c2ccccc12`: the IC50 on Bcl-2-related protein A1 is > 20 µM (inactive); in test [4], 5.96 µM (active); in [5], 8.6 µM (active).
For the compound `O=C(Nc1ccc(Br)cc1)c1ccc(N2C(=O)C3CC=CCC3C2=O)cc1` (stereo not given), the IC50 in test [6] was > 20 µM (inactive).
In the case of `COC(=O)c1c(NC(=O)COC(=O)c2ccc(NC(=O)CC#N)cc2)sc2c1CCCCC2`, the IC50 in test [7] was 6.24 µM (active); at SUMO-activating enzyme [8], 7.43 µM (active); in test [9] it was 3.35 µM (active); at Prothrombin, 85.9 µM (active); on Genome polyprotein, > 49.8 µM (not active); in [10], > 100 µM (inactive). The IC50 in [11] was > 66.6 µM (inactive); on SUMO-activating enzyme [12] it was 6.14 µM (active); in test [13] it was 1.84 µM (active); in [14], 13.8 µM (active).
On to `Cc1ccc(S(=O)(=O)CCN2C=CC(C(F)(F)F)=NCC2)cc1`, for which the IC50 on Coagulation factor XII is > 50 µM (inactive).
Regarding `CCOC(=O)c1c(C)[nH]c(C2=NN=C(Nc3ccc(OCC)cc3)SC2)c1C`, the EC50 was 19.4 µM (active) on Hexokinase HKDC1 and 21.1 µM (inactive) at Hexokinase-1.
A word on the AC50: it is the midpoint of the concentration-response curve, whichever way the signal moves. As for `Cc1ccc(/C=C(\C#N)C(=O)Nc2cccc3ncccc23)o1`, the IC50 is > 25 µM (inactive) in [15], 23.6 µM (active) in test [16], 17.4 µM (active) in test [18] and 26.6 µM (active) in test [19]. For the same compound, in [17], the AC50 is 0.701 µM (active).
